Reference: the supplement of paper PMC10307832

Key:
Experiment in all cases: relative viability (nuclei count vs DMSO), 5 days (fraction); higher = more cells survive
[1] = tested on: NCI-H1792
In short: (§1)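 Lung cancer cell lines were pin-tool dosed in 1536-well plates on the day after seeding, with either a lone drug or a fixed anchor-drug dose plus five library-drug doses (not always all listed) in √10 steps. Nuclei were counted on 4× images after 5 days. Relative viability is the ratio of treated-well to vehicle-well nuclei counts, with each value a median of duplicate plates.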

[2] = tested on: HCC-827
In short: as §1

[3] = tested on: COR-L 105
In short: as §1

[4] = tested on: NCI-H2009
In short: as §1

[5] = tested on: CAL-12T
In short: as §1

[6] = tested on: NCI-H2405
In short: as §1

[7] = tested on: NCI-H2228
In short: as §1

[8] = tested on: NCI-H1651
In short: as §1

[9] = tested on: NCI-H1395
In short: as §1

[10] = tested on: LCLC-97TM1
In short: as §1

[11] = tested on: H3255
In short: as §1

[12] = tested on: NCI-H23
In short: as §1

[13] = tested on: UMC-11
In short: as §1

[14] = tested on: NCI-H650
In short: as §1

[15] = tested on: PC-3 [JPC-3]
In short: as §1

[16] = tested on: SK-MES-1
In short: as §1

[17] = tested on: LU99A
In short: as §1

[18] = tested on: NCI-H2170
In short: as §1

[19] = tested on: NCI-H661
In short: as §1

[20] = tested on: NCI-H2087
In short: as §1

[21] = tested on: HARA
In short: as §1

[22] = tested on: HCC-15
In short: as §1

[23] = tested on: 201T
In short: as §1

Compound: Oc1nc(-c2ccc(C(F)(F)F)cc2)nc2c1CSCC2 [XAV939] + CC(=O)Nc1cccc(-n2c(=O)n(C3CC3)c(=O)c3c(Nc4ccc(I)cc4F)n(C)c(=O)c(C)c32)c1 [Trametinib] (partner 0.02 µM)
- relative viability ([1]; first compound 0.08 µM): 0.492
- relative viability ([1]; first compound 0.253 µM): 0.473
- relative viability ([1]; first compound 0.8 µM): 0.448
- relative viability ([1]; first compound 2.53 µM): 0.391
- relative viability ([2]; first compound 0.08 µM): 0.592
- relative viability ([2]; first compound 0.253 µM): 0.504
- relative viability ([2]; first compound 0.8 µM): 0.642
- relative viability ([2]; first compound 2.53 µM): 0.514
- relative viability ([3]; first compound 0.08 µM): 0.43
- relative viability ([3]; first compound 0.253 µM): 0.433
- relative viability ([3]; first compound 0.8 µM): 0.4
- relative viability ([3]; first compound 2.53 µM): 0.414
- relative viability ([4]; first compound 0.08 µM): 0.287
- relative viability ([4]; first compound 0.253 µM): 0.281
- relative viability ([4]; first compound 0.8 µM): 0.19
- relative viability ([4]; first compound 2.53 µM): 0.217
- relative viability ([5]; first compound 0.08 µM): 0.346
- relative viability ([5]; first compound 0.253 µM): 0.257
- relative viability ([5]; first compound 0.8 µM): 0.272
- relative viability ([5]; first compound 2.53 µM): 0.223
- relative viability ([6]; first compound 0.08 µM): 0.685
- relative viability ([6]; first compound 0.253 µM): 0.591
- relative viability ([6]; first compound 0.8 µM): 0.607
- relative viability ([6]; first compound 2.53 µM): 0.412
- relative viability ([7]; first compound 0.08 µM): 0.429
- relative viability ([7]; first compound 0.253 µM): 0.488
- relative viability ([7]; first compound 0.8 µM): 0.541
- relative viability ([7]; first compound 2.53 µM): 0.571
- relative viability ([8]; first compound 0.08 µM): 0.821
- relative viability ([8]; first compound 0.253 µM): 0.724
- relative viability ([8]; first compound 0.8 µM): 0.825
- relative viability ([8]; first compound 2.53 µM): 0.816
- relative viability ([9]; first compound 0.08 µM): 1.02
- relative viability ([9]; first compound 0.253 µM): 0.974
- relative viability ([9]; first compound 0.8 µM): 1.11
- relative viability ([9]; first compound 2.53 µM): 0.944
- relative viability ([10]; first compound 0.08 µM): 0.213
- relative viability ([10]; first compound 0.253 µM): 0.199
- relative viability ([10]; first compound 2.53 µM): 0.161
- relative viability ([11]; first compound 0.08 µM): 0.674
- relative viability ([11]; first compound 0.253 µM): 0.528
- relative viability ([11]; first compound 0.8 µM): 0.62
- relative viability ([11]; first compound 2.53 µM): 0.425
- relative viability ([12]; first compound 0.08 µM): 0.383
- relative viability ([12]; first compound 0.8 µM): 0.403
- relative viability ([12]; first compound 2.53 µM): 0.349
- relative viability ([13]; first compound 0.08 µM): 0.692
- relative viability ([13]; first compound 0.253 µM): 0.703
- relative viability ([13]; first compound 0.8 µM): 0.879
- relative viability ([13]; first compound 2.53 µM): 0.632
- relative viability ([14]; first compound 0.08 µM): 1.08
- relative viability ([14]; first compound 0.253 µM): 1.05
- relative viability ([14]; first compound 0.8 µM): 1
- relative viability ([14]; first compound 2.53 µM): 0.92
- relative viability ([15]; first compound 0.253 µM): 0.613
- relative viability ([15]; first compound 0.8 µM): 0.722
- relative viability ([15]; first compound 2.53 µM): 0.677
- relative viability ([16]; first compound 0.08 µM): 0.554
- relative viability ([16]; first compound 0.253 µM): 0.5
- relative viability ([16]; first compound 0.8 µM): 0.489
- relative viability ([16]; first compound 2.53 µM): 0.459
- relative viability ([17]; first compound 0.08 µM): 0.678
- relative viability ([17]; first compound 0.253 µM): 0.521
- relative viability ([17]; first compound 0.8 µM): 0.524
- relative viability ([17]; first compound 2.53 µM): 0.542
- relative viability ([18]; first compound 0.08 µM): 0.882
- relative viability ([18]; first compound 0.253 µM): 0.833
- relative viability ([18]; first compound 0.8 µM): 0.822
- relative viability ([18]; first compound 2.53 µM): 0.72
- relative viability ([19]; first compound 0.08 µM): 0.617
- relative viability ([19]; first compound 0.253 µM): 0.538
- relative viability ([19]; first compound 0.8 µM): 0.543
- relative viability ([19]; first compound 2.53 µM): 0.568
- relative viability ([20]; first compound 0.08 µM): 0.198
- relative viability ([20]; first compound 0.253 µM): 0.168
- relative viability ([20]; first compound 0.8 µM): 0.215
- relative viability ([20]; first compound 2.53 µM): 0.147
- relative viability ([21]; first compound 0.08 µM): 0.925
- relative viability ([21]; first compound 0.253 µM): 0.531
- relative viability ([21]; first compound 0.8 µM): 0.892
- relative viability ([21]; first compound 2.53 µM): 0.506
- relative viability ([22]; first compound 0.08 µM): 0.416
- relative viability ([22]; first compound 0.253 µM): 0.342
- relative viability ([22]; first compound 0.8 µM): 0.376
- relative viability ([22]; first compound 2.53 µM): 0.304
- relative viability ([23]; first compound 0.08 µM): 0.78
- relative viability ([23]; first compound 0.253 µM): 0.648
- relative viability ([23]; first compound 0.8 µM): 0.685
- relative viability ([23]; first compound 2.53 µM): 0.569

Compound: Oc1nc(-c2ccc(C(F)(F)F)cc2)nc2c1CSCC2 [XAV939] + Nc1nc2[nH]cc(CCc3ccc(C(=O)N[C@@H](CCC(=O)O)C(=O)O)cc3)c2c(=O)[nH]1 [Pemetrexed] (partner 0.2 µM)
- relative viability ([1]; first compound 0.08 µM): 0.967
- relative viability ([1]; first compound 0.253 µM): 0.726
- relative viability ([1]; first compound 0.8 µM): 0.813
- relative viability ([1]; first compound 2.53 µM): 0.72
- relative viability ([2]; first compound 0.08 µM): 0.275
- relative viability ([2]; first compound 0.253 µM): 0.268
- relative viability ([2]; first compound 0.8 µM): 0.254
- relative viability ([2]; first compound 2.53 µM): 0.245
- relative viability ([3]; first compound 0.08 µM): 1.09
- relative viability ([3]; first compound 0.253 µM): 0.916
- relative viability ([3]; first compound 0.8 µM): 1.03
- relative viability ([3]; first compound 2.53 µM): 0.875
- relative viability ([4]; first compound 0.08 µM): 1.22
- relative viability ([4]; first compound 0.253 µM): 1.08
- relative viability ([4]; first compound 0.8 µM): 0.979
- relative viability ([4]; first compound 2.53 µM): 0.978
- relative viability ([5]; first compound 0.08 µM): 1.2
- relative viability ([5]; first compound 0.253 µM): 1.13
- relative viability ([5]; first compound 0.8 µM): 1.18
- relative viability ([5]; first compound 2.53 µM): 0.814
- relative viability ([6]; first compound 0.08 µM): 0.972
- relative viability ([6]; first compound 0.253 µM): 0.992
- relative viability ([6]; first compound 0.8 µM): 0.945
- relative viability ([6]; first compound 2.53 µM): 0.94
- relative viability ([7]; first compound 0.08 µM): 0.332
- relative viability ([7]; first compound 0.253 µM): 0.341
- relative viability ([7]; first compound 0.8 µM): 0.29
- relative viability ([7]; first compound 2.53 µM): 0.271
- relative viability ([8]; first compound 0.08 µM): 0.576
- relative viability ([8]; first compound 0.253 µM): 0.513
- relative viability ([8]; first compound 0.8 µM): 0.545
- relative viability ([8]; first compound 2.53 µM): 0.4
- relative viability ([9]; first compound 0.08 µM): 0.875
- relative viability ([9]; first compound 0.253 µM): 0.832
- relative viability ([9]; first compound 0.8 µM): 0.805
- relative viability ([9]; first compound 2.53 µM): 0.908
- relative viability ([10]; first compound 0.08 µM): 0.234
- relative viability ([10]; first compound 0.253 µM): 0.179
- relative viability ([10]; first compound 2.53 µM): 0.162
- relative viability ([11]; first compound 0.08 µM): 0.576
- relative viability ([11]; first compound 0.253 µM): 0.544
- relative viability ([11]; first compound 0.8 µM): 0.55
- relative viability ([11]; first compound 2.53 µM): 0.465
- relative viability ([12]; first compound 0.08 µM): 0.727
- relative viability ([12]; first compound 0.8 µM): 0.543
- relative viability ([12]; first compound 2.53 µM): 0.52
- relative viability ([13]; first compound 0.08 µM): 0.893
- relative viability ([13]; first compound 0.253 µM): 0.635
- relative viability ([13]; first compound 0.8 µM): 0.731
- relative viability ([13]; first compound 2.53 µM): 0.636
- relative viability ([14]; first compound 0.08 µM): 0.973
- relative viability ([14]; first compound 0.253 µM): 1
- relative viability ([14]; first compound 0.8 µM): 0.96
- relative viability ([14]; first compound 2.53 µM): 0.816
- relative viability ([15]; first compound 0.253 µM): 1.04
- relative viability ([15]; first compound 0.8 µM): 0.946
- relative viability ([15]; first compound 2.53 µM): 1.11
- relative viability ([16]; first compound 0.08 µM): 1.01
- relative viability ([16]; first compound 0.253 µM): 0.778
- relative viability ([16]; first compound 0.8 µM): 0.835
- relative viability ([16]; first compound 2.53 µM): 0.768
- relative viability ([17]; first compound 0.08 µM): 0.19
- relative viability ([17]; first compound 0.253 µM): 0.167
- relative viability ([17]; first compound 0.8 µM): 0.184
- relative viability ([17]; first compound 2.53 µM): 0.181
- relative viability ([18]; first compound 0.08 µM): 0.255
- relative viability ([18]; first compound 0.253 µM): 0.246
- relative viability ([18]; first compound 0.8 µM): 0.265
- relative viability ([18]; first compound 2.53 µM): 0.258
- relative viability ([19]; first compound 0.08 µM): 0.947
- relative viability ([19]; first compound 0.253 µM): 0.868
- relative viability ([19]; first compound 0.8 µM): 0.914
- relative viability ([19]; first compound 2.53 µM): 0.854
- relative viability ([20]; first compound 0.08 µM): 0.706
- relative viability ([20]; first compound 0.253 µM): 0.636
- relative viability ([20]; first compound 0.8 µM): 0.64
- relative viability ([20]; first compound 2.53 µM): 0.552
- relative viability ([21]; first compound 0.08 µM): 0.255
- relative viability ([21]; first compound 0.253 µM): 0.305
- relative viability ([21]; first compound 0.8 µM): 0.252
- relative viability ([21]; first compound 2.53 µM): 0.193
- relative viability ([22]; first compound 0.08 µM): 0.238
- relative viability ([22]; first compound 0.253 µM): 0.214
- relative viability ([22]; first compound 0.8 µM): 0.241
- relative viability ([22]; first compound 2.53 µM): 0.201
- relative viability ([23]; first compound 0.08 µM): 0.359
- relative viability ([23]; first compound 0.253 µM): 0.338
- relative viability ([23]; first compound 0.8 µM): 0.374
- relative viability ([23]; first compound 2.53 µM): 0.288
